Here are results for twelve compounds from ChEMBL document CHEMBL1909046, “DrugMatrix in vitro pharmacology data”.

Experiment [1] is described as follows: DRUGMATRIX: beta-Lactamase enzyme inhibition (substrate: Nitrocefin). Also noted: species or system Bacillus cereus. To be noted: Not Active = under 50% inhibition at 10 µM.
Experiment [2] has as its target T1, Alpha-1D adrenergic receptor (Homo sapiens, UniProt P25100). Note: in other assays of this panel Not Active means under 50% inhibition at 10 µM.
T1 sequence (P25100 whole entry): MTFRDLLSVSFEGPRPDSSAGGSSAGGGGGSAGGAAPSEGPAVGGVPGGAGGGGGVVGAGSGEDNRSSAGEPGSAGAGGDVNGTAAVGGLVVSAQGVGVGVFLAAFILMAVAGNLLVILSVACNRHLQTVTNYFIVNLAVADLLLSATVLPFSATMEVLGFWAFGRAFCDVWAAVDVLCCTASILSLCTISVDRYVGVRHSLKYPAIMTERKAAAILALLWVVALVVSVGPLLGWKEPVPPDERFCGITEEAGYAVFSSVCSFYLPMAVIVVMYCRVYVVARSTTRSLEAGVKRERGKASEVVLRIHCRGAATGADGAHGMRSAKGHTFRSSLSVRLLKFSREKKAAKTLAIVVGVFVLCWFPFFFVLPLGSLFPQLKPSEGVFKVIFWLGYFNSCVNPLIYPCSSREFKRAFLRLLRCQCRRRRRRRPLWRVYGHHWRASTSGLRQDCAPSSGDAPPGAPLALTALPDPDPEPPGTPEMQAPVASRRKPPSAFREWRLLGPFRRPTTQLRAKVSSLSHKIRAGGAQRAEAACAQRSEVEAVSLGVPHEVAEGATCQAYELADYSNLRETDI
It counts as cell membranes, HEK293, Membrane.

The target in experiment [3] is Sodium-dependent noradrenaline transporter (Homo sapiens, UniProt P23975). Description: DRUGMATRIX: Norepinephrine Transporter radioligand binding (ligand: [125I] RTI-55). It counts as cell membranes, MDCK, Membrane. To be noted: Not Active = under 50% inhibition at 10 µM.
Chain of Sodium-dependent noradrenaline transporter (P23975 whole entry): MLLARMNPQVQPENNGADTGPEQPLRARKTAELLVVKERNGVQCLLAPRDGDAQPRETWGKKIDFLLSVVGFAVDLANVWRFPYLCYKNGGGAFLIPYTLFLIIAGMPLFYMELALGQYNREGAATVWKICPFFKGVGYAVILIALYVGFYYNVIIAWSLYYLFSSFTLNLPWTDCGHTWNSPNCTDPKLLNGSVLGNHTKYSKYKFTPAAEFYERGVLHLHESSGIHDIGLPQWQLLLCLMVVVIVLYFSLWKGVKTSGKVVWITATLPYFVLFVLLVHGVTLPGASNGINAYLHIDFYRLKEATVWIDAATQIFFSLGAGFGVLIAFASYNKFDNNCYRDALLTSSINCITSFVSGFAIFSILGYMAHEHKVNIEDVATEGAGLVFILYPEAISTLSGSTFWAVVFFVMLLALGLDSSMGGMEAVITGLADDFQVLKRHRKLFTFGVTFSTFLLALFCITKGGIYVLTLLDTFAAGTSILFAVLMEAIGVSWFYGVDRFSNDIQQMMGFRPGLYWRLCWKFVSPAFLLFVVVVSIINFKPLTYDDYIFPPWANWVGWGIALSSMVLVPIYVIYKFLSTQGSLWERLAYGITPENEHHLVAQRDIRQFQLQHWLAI
A short description of experiment [4]: DRUGMATRIX: Phorbol Ester radioligand binding (ligand: [3H] PDBu). To be noted: Not Active = under 50% inhibition at 10 µM. The format is cell membranes, Mus musculus, ICR, Brain, Membrane.
The next experiment deals with T2, Cathepsin G (Homo sapiens, UniProt P08311).
T2 sequence (P08311 whole entry): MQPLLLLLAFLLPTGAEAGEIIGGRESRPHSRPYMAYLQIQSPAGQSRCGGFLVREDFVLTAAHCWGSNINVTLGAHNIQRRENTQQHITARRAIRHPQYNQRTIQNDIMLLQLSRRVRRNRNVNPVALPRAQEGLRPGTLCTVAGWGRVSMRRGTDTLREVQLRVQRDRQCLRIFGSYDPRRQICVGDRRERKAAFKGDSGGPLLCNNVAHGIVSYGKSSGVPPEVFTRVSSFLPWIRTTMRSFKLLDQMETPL
It counts as tissue-based. To be noted: neutrophil.

Experiment [5] deals with T3, C-X-C chemokine receptor type 2 (Homo sapiens, UniProt P25025).
T3 sequence (P25025 whole entry): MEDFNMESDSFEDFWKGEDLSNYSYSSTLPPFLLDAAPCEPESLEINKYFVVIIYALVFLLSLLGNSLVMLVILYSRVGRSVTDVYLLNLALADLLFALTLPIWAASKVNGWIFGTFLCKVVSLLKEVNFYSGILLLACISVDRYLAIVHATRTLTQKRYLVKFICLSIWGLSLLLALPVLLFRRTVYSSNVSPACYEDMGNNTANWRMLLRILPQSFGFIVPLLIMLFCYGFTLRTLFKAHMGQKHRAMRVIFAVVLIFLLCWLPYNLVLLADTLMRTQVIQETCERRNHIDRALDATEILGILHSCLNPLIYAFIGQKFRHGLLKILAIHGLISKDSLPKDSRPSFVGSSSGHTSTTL
The format is cell membranes, Membrane. To be noted: cho-k1.

Another experiment deals with Nitric oxide synthase 1 (Rattus norvegicus, UniProt P29476). It counts as tissue-based, Cerebellum.
Chain of Nitric oxide synthase 1 (P29476 whole entry): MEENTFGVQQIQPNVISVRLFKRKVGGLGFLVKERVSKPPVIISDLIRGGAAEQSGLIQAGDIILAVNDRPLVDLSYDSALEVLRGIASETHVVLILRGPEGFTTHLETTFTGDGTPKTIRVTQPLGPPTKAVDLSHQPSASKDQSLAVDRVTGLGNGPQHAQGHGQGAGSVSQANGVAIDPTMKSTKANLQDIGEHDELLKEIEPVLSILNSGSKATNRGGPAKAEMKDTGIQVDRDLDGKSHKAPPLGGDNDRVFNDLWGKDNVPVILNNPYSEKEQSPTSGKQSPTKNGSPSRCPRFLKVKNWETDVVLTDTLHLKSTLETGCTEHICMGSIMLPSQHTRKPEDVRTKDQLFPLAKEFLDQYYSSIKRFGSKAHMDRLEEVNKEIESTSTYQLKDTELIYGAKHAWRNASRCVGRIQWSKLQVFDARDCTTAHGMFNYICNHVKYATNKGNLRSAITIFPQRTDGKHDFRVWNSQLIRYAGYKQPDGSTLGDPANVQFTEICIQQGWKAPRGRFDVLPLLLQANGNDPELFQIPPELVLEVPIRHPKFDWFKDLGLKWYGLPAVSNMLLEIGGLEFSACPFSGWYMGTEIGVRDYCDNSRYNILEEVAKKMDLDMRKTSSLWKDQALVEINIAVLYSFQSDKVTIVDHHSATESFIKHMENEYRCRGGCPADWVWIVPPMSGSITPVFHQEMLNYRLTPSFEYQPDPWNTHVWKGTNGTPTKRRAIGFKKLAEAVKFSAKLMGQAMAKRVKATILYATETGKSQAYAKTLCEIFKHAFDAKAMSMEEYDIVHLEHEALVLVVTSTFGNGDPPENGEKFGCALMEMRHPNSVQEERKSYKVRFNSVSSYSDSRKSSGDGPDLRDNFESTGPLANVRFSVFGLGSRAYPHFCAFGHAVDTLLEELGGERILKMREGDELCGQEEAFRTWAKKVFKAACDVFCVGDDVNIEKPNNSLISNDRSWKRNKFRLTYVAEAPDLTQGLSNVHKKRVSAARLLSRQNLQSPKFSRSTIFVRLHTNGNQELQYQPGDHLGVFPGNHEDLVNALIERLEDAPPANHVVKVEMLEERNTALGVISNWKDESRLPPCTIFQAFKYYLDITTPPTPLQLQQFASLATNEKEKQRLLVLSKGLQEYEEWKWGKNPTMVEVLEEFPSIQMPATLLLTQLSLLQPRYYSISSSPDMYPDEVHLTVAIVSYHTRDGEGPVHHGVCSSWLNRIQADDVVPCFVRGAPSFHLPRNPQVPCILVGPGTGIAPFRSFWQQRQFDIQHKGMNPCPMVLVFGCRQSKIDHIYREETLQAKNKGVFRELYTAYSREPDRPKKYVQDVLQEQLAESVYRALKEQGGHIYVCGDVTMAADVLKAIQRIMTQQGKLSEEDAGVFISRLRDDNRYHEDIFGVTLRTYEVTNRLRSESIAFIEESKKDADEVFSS

For `COc1ccnc(C[S+]([O-])c2nc3ccc(OC(F)F)cc3[nH]2)c1OC` (stereo unspecified) [PANTOPRAZOLE], the IC50 entry (in experiment [1]; in experiment [2] (hek293); in experiment [3] (mdck); in experiment [4]; at Cathepsin G; in experiment [5]) was “Not Active” in each case. Besides, the IC50 entry against Nitric oxide synthase 1 is recorded as “Not Active”. Also, the inhibitory constant (Ki) entry in experiment [1] and in experiment [4] was “Not Active” each time.

As for `N=C(N)c1ccc(OCCCCCOc2ccc(C(=N)N)cc2)cc1` [PENTAMIDINE], the IC50 result in experiment [1] was “Not Active”; in experiment [2] (hek293), “Not Active”; in experiment [3] (read-out: IC50) it was 2210 nM; in experiment [4] it was “Not Active”; against Cathepsin G, “Not Active”; in experiment [5], “Not Active”. Also, the IC50 entry on Nitric oxide synthase 1 is on record as “Not Active”. Moreover, the Ki result was “Not Active” in experiment [1], 2200 nM in experiment [3] (read-out: Ki) and “Not Active” in experiment [4].

Regarding `NNCCc1ccccc1` [PHENELZINE], the IC50 result (in experiment [1]; in experiment [2] (hek293); in experiment [3] (mdck); in experiment [4]; on Cathepsin G; in experiment [5]) was “Not Active” throughout. Also, the IC50 entry against Nitric oxide synthase 1 is listed as “Not Active”. Also, the Ki entry in experiment [1] and in experiment [4] was “Not Active” in each case.

As to `CCc1ccc(CCOc2ccc(CC3SC(=O)NC3=O)cc2)nc1` (stereo unspecified) [PIOGLITAZONE], the concentration for half-maximal inhibition (IC50) entry (in experiment [1]; in experiment [2] (hek293); in experiment [3] (mdck); in experiment [4]; against Cathepsin G; in experiment [5]) was “Not Active” in each case. Besides, the IC50 entry at Nitric oxide synthase 1 was “Not Active”. Moreover, the Ki entry in experiment [1] and in experiment [4] was “Not Active” throughout.

Turning to `CCCNC(C)C(=O)Nc1ccccc1C` (stereo unspecified) [PRILOCAINE], the IC50 result (in experiment [1]; in experiment [2] (hek293); in experiment [3] (mdck); in experiment [4]; against Cathepsin G; in experiment [5]) was “Not Active” each time. For the same compound, the IC50 entry on Nitric oxide synthase 1 is recorded as “Not Active”. The Ki result in experiment [1] and in experiment [4] was “Not Active” throughout.

In the case of `CCN(CC)CCNC(=O)c1ccc(N)cc1` [PROCAINAMIDE], the IC50 result (in experiment [1]; in experiment [2] (hek293); in experiment [3] (mdck); in experiment [4]; against Cathepsin G; in experiment [5]) was “Not Active” each time. The IC50 entry at Nitric oxide synthase 1 is listed as “Not Active”. Also, the Ki entry in experiment [1] and in experiment [4] was “Not Active” each time.

Take `CCN(CC)CCCC(C)Nc1c2ccc(Cl)cc2nc2ccc(OC)cc12` (stereo unspecified) [QUINACRINE]: the IC50 entry in experiment [1] was “Not Active”; in experiment [2] (read-out: IC50) it was 2070 nM; in experiment [3] (read-out: IC50), 2900 nM; in experiment [4], “Not Active”; against Cathepsin G, “Not Active”; in experiment [5] it was “Not Active”. Moreover, on Nitric oxide synthase 1, the IC50 entry was “Not Active”. Besides, the Ki result in experiment [1] was “Not Active”; in experiment [2] (read-out: Ki) it was 1020 nM; in experiment [3] (read-out: Ki) it was 2870 nM; in experiment [4] it was “Not Active”.

`C[C@]12C=CC(=O)C=C1CC[C@H]1[C@@H]3C[C@@H](O)[C@](O)(C(=O)CO)[C@@]3(C)C[C@H](O)[C@@]12F` [TRIAMCINOLONE]: the IC50 result (in experiment [1]; in experiment [2] (hek293); in experiment [3] (mdck); in experiment [4]; at Cathepsin G; in experiment [5]) was “Not Active” throughout. Further, the IC50 result against Nitric oxide synthase 1 was “Not Active”. For the same compound, the Ki entry in experiment [1] and in experiment [4] was “Not Active” throughout.

For `CC[C@]1(O)C[C@@H]2CN(CCc3c([nH]c4ccccc34)[C@@](C(=O)OC)(c3cc4c(cc3OC)N(C)[C@H]3[C@@](O)(C(N)=O)[C@H](O)[C@]5(CC)C=CCN6CC[C@]43[C@@H]65)C2)C1` [VINDESINE], the IC50 result (in experiment [1]; in experiment [2] (hek293); in experiment [3] (mdck); in experiment [4]; on Cathepsin G; in experiment [5]) was “Not Active” each time. In addition, the IC50 entry against Nitric oxide synthase 1 is given as “Not Active”. For the same compound, the Ki result in experiment [1] and in experiment [4] was “Not Active” each time.

Take `CCN(C(C)=O)c1cccc(-c2ccnc3c(C#N)cnn23)c1` [ZALEPLON]: the IC50 result (in experiment [1]; in experiment [2] (hek293); in experiment [3] (mdck); in experiment [4]; at Cathepsin G; in experiment [5]) was “Not Active” in each case. The IC50 result on Nitric oxide synthase 1 is reported as “Not Active”. In addition, the Ki result in experiment [1] and in experiment [4] was “Not Active” each time.

For COBALTOUS CHLORIDE, the IC50 result (in experiment [1]; in experiment [2] (hek293); in experiment [3] (mdck); in experiment [4]; against Cathepsin G; in experiment [5]) was “Not Active” in each case. Also, the IC50 result at Nitric oxide synthase 1 was “Not Active”. The Ki result (in experiment [1]; in experiment [2] (hek293); in experiment [3] (mdck); in experiment [4]; on Cathepsin G; in experiment [5]) was “Not Active” each time. On Nitric oxide synthase 1, the Ki entry was “Not Active”.

With COLISTIN, the IC50 result (in experiment [1]; in experiment [2] (hek293); in experiment [3] (mdck); in experiment [4]; at Cathepsin G; in experiment [5]) was “Not Active” in each case. Moreover, at Nitric oxide synthase 1, the IC50 result is reported as “Not Active”. In addition, the Ki entry (in experiment [1]; in experiment [2] (hek293); in experiment [3] (mdck); in experiment [4]; on Cathepsin G; in experiment [5]) was “Not Active” each time. For the same compound, at Nitric oxide synthase 1, the Ki entry is “Not Active”.
